# Columns and labels:
# Assay in all cases: inhibition of [3H]cGMP uptake in OAT2-HEK293 cells
# Type in all cases: cell-based
# [1] = target: T1, human OAT2 (organic anion transporter 2) (Homo sapiens, UniProt Q9Y694)
# T1 construct: gene SLC22A7; full-length human OAT2 stably transfected in HEK293 cells (PortaCellTec Biosciences)
# T1 sequence (Q9Y694 1-548): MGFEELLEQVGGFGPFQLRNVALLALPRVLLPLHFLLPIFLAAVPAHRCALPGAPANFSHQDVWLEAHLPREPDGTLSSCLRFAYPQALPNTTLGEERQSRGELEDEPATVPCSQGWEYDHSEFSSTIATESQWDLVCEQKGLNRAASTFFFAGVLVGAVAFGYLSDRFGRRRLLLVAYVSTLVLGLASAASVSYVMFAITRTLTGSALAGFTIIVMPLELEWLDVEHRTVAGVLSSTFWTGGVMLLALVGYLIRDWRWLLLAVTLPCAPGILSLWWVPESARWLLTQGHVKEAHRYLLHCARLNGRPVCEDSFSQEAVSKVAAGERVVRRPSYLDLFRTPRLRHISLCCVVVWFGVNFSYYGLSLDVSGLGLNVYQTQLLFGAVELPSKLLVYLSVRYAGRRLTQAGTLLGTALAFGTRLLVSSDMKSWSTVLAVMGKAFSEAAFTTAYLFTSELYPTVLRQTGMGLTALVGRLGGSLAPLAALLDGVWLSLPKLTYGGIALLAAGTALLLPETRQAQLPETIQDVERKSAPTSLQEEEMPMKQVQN
# [2] = target: T1, human OAT2 (organic anion transporter 2); conditions: 500 μM inhibitor, 10 μM cGMP, 5 min, 37°C, pH 7.4
# [3] = target: T1, human OAT2 (organic anion transporter 2); conditions: read-out: % inhibition at 500 μM
Structure (SMILES),% inhibition at 500 μM [2],other results
CCCCNc1cc(C(=O)O)cc(S(N)(=O)=O)c1Oc1ccccc1 [bumetanide],,IC50 [1]: 130 ± 21.8 µM
CCOC(=O)[C@H](CCc1ccccc1)N[C@@H](C)C(=O)N1CCC[C@H]1C(=O)O [enalapril],weak inhibition of OAT2-mediated cGMP uptake by high concentrations of sitagliptin and enalapril,
COc1cc(CC(=O)O)ccc1O [homovanillic acid],significantly decreased in the presence of the dopamine metabolite homovanillate,
COc1ccc2c(c1)c(CC(=O)O)c(C)n2C(=O)c1ccc(Cl)cc1 [indomethacin],OAT2 transport function was abolished by indomethacin,
N[C@@H](CC(=O)N1CCn2c(nnc2C(F)(F)F)C1)Cc1cc(F)c(F)cc1F [sitagliptin],,inhibition at 500 µM [3]: ~25%

# Reference: paper PMC4325971, “Sex-Differences in Renal Expression of Selected Transporters and Transcription Factors in Lean and Obese Zucker Spontaneously Hypertensive Fatty Rats” (Journal of Diabetes Research, 2015)
